# In patent US9241928B2, “Antimicrobial compounds” (The General Hospital Corporation, priority 2009, dated 2016):
# How the values were obtained:
# [1] = test system: E. faecalis strain V583; assay: Biofilm maintenance assay (crystal violet); type: cell-based, Enterococcus faecalis; details: 10 μg/ml added to biofilm established for 24 hours
# Method: To test for the efficacy of candidate compounds on biofilm maintenance, a bacterial culture of OD600=0.025 was grown in 96-well polystyrene plates for 24 hours as described above to establish biofilm mass prior to the addition of candidate compounds dissolved in DMSO at a final concentration of 10 μg/ml. The plates were then processed as described above.
# [2] = test system: a different Enterococcus faecalis strain; assay: Bacterial killing, different Enterococcus faecalis strain (data not shown); type: cell-based
# [3] = test system: a Staphylococcus aureus strain; assay: Bacterial killing, Staphylococcus aureus strain (data not shown); type: cell-based
# [4] = test system: C. elegans infected with E. faecalis; assay: Dose response time courses in the C. elegans-E. faecalis infection assay; type: in vivo, Caenorhabditis elegans; details: Effective Concentration: survival significantly different from mock-treated, p-value <0.05, logrank; read-out: EC
# Method: glp-4(bn2); sek-1 (km4) mutant worms were grown to gravid adult stage. 1,000 worms at the L1 stage were grown for 5.2 days at 15° C. on 9-cm plates of SK agar media spread with a lawn of E. coli strain HB101. Embryos from the gravid adults were isolated by a previously described hypochlorite method (see Tan et al., (1999) Proc. Natl. Acad. Sci. USA 96, 715-720) and hatched at 15° C. for 2 days. Approximately 4,500 of the Ll hatchlings were grown on each 9-cm plate of SK-NS agar (SK media with 62.5 U/ml nystatin and 100 μg/ml streptomycin) and with lawns of E. coli HB101. These worms were grown at 25° C. for 52 hours to generate sterile, young adults.
# A culture of E. faecalis MMH594 was grown in BHI broth (BD Difco) with 80 μg/ml kanamycin at 37° C. for 6 hours and 100 μl of the culture were spread onto each 9-cm plate of BHI agar containing 80 μg/mlkanamycin. Lawns of E. faecalis were grown at 25° C. for 16 hours and transferred to 15° C. for 8 hours.
# Sterile adult worms were resuspended in M9 buffer and washed twice with M9 in a 1:10 ratio to remove E. coli. 8,000 worms were pipetted onto each lawn of E. faecalis and incubated 15 hours at 15° C. After infection, the worms were resuspended in M9 and used as described below. 384-well plates (Corning #3712) were filled with 55 μl media (see below) using a Thermo Scientific MULTIDROP Combi reagent dispenser. 0.3 μl of a candidate compound in DSMO were pin transferred into each well using a CyBio CYBI-Well vario transfer system. The plates were agitated using an Eppendorf MIXMATE at 1,800 rpm for 15 seconds. Using the Union Biometrica Complex Object Parametric Analyzer and Sorter (COPAS) BIOSORT worm sorter according to manufacturer's protocols, 15 of the infected worms were transferred to each well in a total volume of approximately 15 μl. Total volume per well is 70 μl/well with a final composition of the media being 20% BHI, […], 80 μg/ml kanamycin, 62.5 U/ml nystatin, 1% DMSO, and 19% sheath solution (Union Biometrica Part #300-5101-000). Plates were vortexed for 5 seconds, centrifuged at 1000×g for 10 seconds, and sealed with gas permeable membranes (BREATHEASY Diversified). Plates were placed in a single layer on the top shelves in a 26.3° C. incubator at 85% relative humidity (RH) and incubated without agitation for 5 days.
# The dose dependence of certain antimicrobial compounds identified by the assay above were studied. These compounds were purchased in a larger amount from commercial sources. For each of these compounds, an infection assay was performed essentially as described above at different concentrations except that SYTOX staining was not used. Instead, bright-field images of the wells were acquired at daily time points and scored manually for worm survival by analyzing worm body positioning. […] All compounds used in this assays were confirmed for their identity and purity by liquid chromatography/mass spectrometry.
# [5] = test system: E. faecalis strain MMH594; assay: Antimicrobial (bacterial killing) assay; type: cell-based, Enterococcus faecalis; details: mM concentrations, 1 to 30 minutes, room temperature
# Method: Compounds 6, 7, 15 were purchased from TimTec and ChemDiv, dissolved in DMSO at a concentration of 5 or 10 mg/ml, and further diluted in DMSO as indicated. E. faecalis strain MMH594 was grown overnight with aeration at 37° C. in Bacto brain heart infusion (BHI) broth (Becton Dickinson), transferred to ice, and washed in phosphate-buffered saline (PBS; pH 7.2). Equal volumes of a dissolved compound and bacteria were mixed, incubated at room temperature for 1 to 30 minutes, ten-fold serially diluted in PBS, and plated in […] droplets on BHI agar plates. Plates were incubated at room temperature until colonies were visible.
# [6] = test system: E. faecalis strain V583; assay: Biofilm formation assay (crystal violet); type: cell-based, Enterococcus faecalis; details: 10 μg/ml, 24 hours
# Method: To test the efficacy of candidate compounds on biofilm formation, a dilute bacterial culture of Enterococcus faecalis was incubated with candidate compounds in polystyrene plates and the level of biofilm formation was quantified by measuring the amount of crystal violet absorbed by the biofilm mass attached to plastic. First, E. faecalis strain V583 was grown at 37° C. for 16 hours in Tryptic Soy Broth (TSB) with 1% glucose. The bacterial culture was diluted to OD600=0.025 in fresh medium and was dispensed into 96-well polystyrene plates. Candidate compounds dissolved in dimethylsulfoxide (DMSO) were added to the wells to provide a final concentration of 10 μg/ml and the plates were incubated statically at 37° C. for 24 hours. After incubation, the medium was aspirated, the planktonic cells were removed by washing with phosphate buffered saline (PBS), and the plates were inverted and dried for 1 hour at room temperature. The biofilm mass was stained with 0.2% crystal violet for 15 minutes and extraneous crystal violet was washed away with PBS. The crystal violet absorbed by the biofilm was extracted with an 80% ethanol, 20% acetone mixture and the absorbance at 595 nm (OD595) was read with a spectrophotometer.
# [7] = test system: E. faecalis MMH594; assay: MIC assay, E. faecalis in vitro; type: cell-based; details: Enterococcus faecalis; E. faecalis MMH594 in 20% BHI, 80% M9, 37° C., 15 hours, scored by eye
# Method: A culture of E. faecalis MMH594 was grown overnight in BHI broth to stationary phase at 37° C. with aeration. The culture was diluted to an approximate density of […] in worm infection media (20% BHI, 80% M9 buffer). 12.5 μl of the bacterial culture dilution was inoculated into 384-well plates containing 12.5 μl of 2-fold serial dilutions of a test compound. […] Plates were incubated at 37° C. for 15 hours and scored by eye for bacterial growth.
# [8] = test system: Drosophila infection; assay: Drosophila infection-survival bioassay (data not shown); type: in vivo
# [9] = test system: T24B8.5::GFP; assay: Immune GFP reporter induction, transgene acIs219; type: in vivo, Caenorhabditis elegans; details: compound-exposed versus DMSO-exposed animals, visual
# Text: (§1) Caenorhabditis elegans strains were maintained on Escherichia coli OP50 as described in Brenner, Genetics, 1974, 77:71-94. Wildtype N2 nematodes carrying integrated transgenes acIs219 (AU78), acIs101(AY101), agIs17(AU133), or agIs26 (AU185) (see (1) Shivers, et al., PLoS. Genet. 2010, 6: e1000892, (2) Bolz et al., J. Biol. Chem. 2010, 285:10832-40, (3) Estes et al., Proc. Natl. Acad. Sci., 2010, 107:2153-8, and (4) Irazoqui et al., Proc. Natl. Acad. Sci., 2008, 105:17469-74) were used to assay the immunomodulatory activity of candidate compounds. For qRT-PCR experiments, RNA was extracted from synchronized young adult nematodes exposed to a candidate compound or DMSO (as a control) using TRI Reagent and reverse transcribed using the Retroscript kit (Ambion). This cDNA was then subjected to qRT-PCR analysis using SYBR green detection on a CFX1000 machine (Bio-Rad, http://www.bio-rad.com). Primers for qRT-PCR were obtained from published sequences (see Irazoqui et al., Proc. Natl. Acad. Sci., 2008, 105:17469-74 and Troemel et al., PLoS Genet. 2006, 2:e183). […] Fold change was calculated using the Pfaffl method (see Pfaffl et al., Nucleic Acids Res., 2001, 29:e45).
# Without wishing to be bound by theory, it was hypothesized that a subset of these compounds cured nematode infection by directly activating the innate immune response of the animal. To test this hypothesis, a multi-faceted approach was used. First, the inventors studied four C. elegans strains in which the promoter of the nematode immune response genes T24B8.5, F35E12.5, irg-1 and clec-60 were individually fused to GFP, generating transgenes acIs219 (AU78), acIs101(AY101), agIs17(AU133), or agIs26 (AU185), respectively, thereby allowing a visual readout of gene activity in each strain. Using these reporter strains, the ability of 33 compounds previously shown to have anti-Enterococcal killing activity in the C. elegans infection assay (24 of which have been described above) were tested for their ability to modulate the nematode immune response.
# [10] = test system: C17H12.8; assay: qRT-PCR of immune response gene expression; type: in vivo, Caenorhabditis elegans; details: 20 μg/mL versus DMSO
# Text: as §1
# (§2) By using the assay described above, the inventors identified five compounds (i.e., Compounds 11, 18, 20, 25, and 26) that robustly and reproducibly activated the immune GFP reporters (see FIG. 5 and Table 3) or activated selected immune response genes as determined by quantitative RT-PCR analysis (see Table 4). For the latter experiments, RNA was isolated from wild-type C. elegans N2 or pmk-1 mutant animals exposed to the candidate immunomodulatory compounds at 20 μg/mL and from animals exposed to DMSO. The inventors tested several immune response genes in compound-exposed animals that are known to be regulated by PMK-1, the p38 Mitogen Acitvated Protein kinase homolog, an evolutionary-conserved, central regulator of nematode immunity. The inventors also used qRT-PCR to measure the activation of several immune response genes that are known to be activated independently of PMK-1. […] Thus, without wishing to be bound by theory, it is believed that a subset of the compounds identified in the screen for novel anti-infective compounds directly stimulate the immune response of the nematode and that these compounds act both by directly stimulating the PMK-1 pathway and by unidentified parallel immune response pathways.
# [11] = test system: C49G7.5; assay: qRT-PCR of immune response gene expression; type: in vivo, Caenorhabditis elegans; details: 20 μg/mL versus DMSO
# Text: as §1, §2
# [12] = test system: T24B8.5; assay: qRT-PCR of immune response gene expression; type: in vivo, Caenorhabditis elegans; details: 20 μg/mL versus DMSO
# Text: as §1, §2
# [13] = test system: F53E10.4; assay: qRT-PCR of immune response gene expression; type: in vivo, Caenorhabditis elegans; details: 20 μg/mL versus DMSO
# Text: as §1, §2
# [14] = test system: F56D6.2; assay: qRT-PCR of immune response gene expression; type: in vivo, Caenorhabditis elegans; details: 20 μg/mL versus DMSO
# Text: as §1, §2
# [15] = test system: F35E12.5; assay: qRT-PCR of immune response gene expression; type: in vivo, Caenorhabditis elegans; details: 20 μg/mL versus DMSO
# Text: as §1, §2
# [16] = test system: irg-1; assay: qRT-PCR of immune response gene expression; type: in vivo, Caenorhabditis elegans; details: 20 μg/mL versus DMSO
# Text: as §1, §2
# [17] = test system: immune response genes; assay: qRT-PCR of immune response genes, PMK-1 dependence (overall); type: in vivo, Caenorhabditis elegans; details: 20 μg/mL, N2 or pmk-1 mutant animals
# Text: as §1
# By using the assay described above, the inventors identified five compounds (i.e., Compounds 11, 18, 20, 25, and 26) that robustly and reproducibly activated the immune GFP reporters (see FIG. 5 and Table 3) or activated selected immune response genes as determined by quantitative RT-PCR analysis (see Table 4). For the latter experiments, RNA was isolated from wild-type C. elegans N2 or pmk-1 mutant animals exposed to the candidate immunomodulatory compounds at 20 μg/mL and from animals exposed to DMSO. The inventors tested several immune response genes in compound-exposed animals that are known to be regulated by PMK-1, the p38 Mitogen Acitvated Protein kinase homolog, an evolutionary-conserved, central regulator of nematode immunity. The inventors also used qRT-PCR to measure the activation of several immune response genes that are known to be activated independently of PMK-1. […]
smiles,measurement,setting,value
O=C(O)C1CC(=O)N(CCC23CC4CC(CC(C4)C2)C3)/C(=N\c2ccc(Cl)cc2)S1 (stereo not shown) [Compound 6],"biofilm maintenance (OD595, FIG. 3B)",[1],disrupted biofilm once it was formed
same,killing of a different Enterococcus faecalis strain,[2],killed
same,killing of a Staphylococcus aureus strain,[3],killed
same,minimal effective concentration,[4],0.39 µg/mL
same,bactericidal activity (FIGS. 7A and 7B),[5],rapid killing of bacteria
same,"biofilm formation (OD595, FIG. 3A)",[6],prevented E. faecalis biofilm formation
same,MIC,[7],6.25 µg/mL
same,bactericidal activity in Drosophila infection-survival bioassay,[8],showed bactericidal activity
O=C(O)CSCC(=O)N1CCn2c3c(c4cc(C5CCCCC5)ccc42)CCCC31 (stereo not shown) [Compound 15],killing of a different Enterococcus faecalis strain,[2],killed
same,killing of a Staphylococcus aureus strain,[3],killed
same,bactericidal activity (FIGS. 7A and 7B),[5],rapid killing of bacteria
same,bactericidal activity in Drosophila infection-survival bioassay,[8],showed bactericidal activity
CC(C)(c1ccc(NS(=O)(=O)C(F)(F)F)cc1)c1ccc(C(C)(C)c2cccc(NS(=O)(=O)C(F)(F)F)c2)cc1 [Compound 18],immune reporter induction T24B8.5::GFP,[9],+
same,"C17H12.8 expression, average fold-change",[10]; genotype N2,10.2 fold-change
same,"C17H12.8 expression, average fold-change",[10]; genotype pmk-1(km25),0.3 fold-change
same,"C49G7.5 expression, average fold-change",[11]; genotype N2,11.1 fold-change
same,"C49G7.5 expression, average fold-change",[11]; genotype pmk-1(km25),57.4 fold-change
same,"T24B8.5 expression, average fold-change",[12]; genotype N2,2.6 fold-change
same,"T24B8.5 expression, average fold-change",[12]; genotype pmk-1(km25),0.3 fold-change
same,"F53E10.4 expression, average fold-change",[13]; genotype N2,0.2 fold-change
same,"F53E10.4 expression, average fold-change",[13]; genotype pmk-1(km25),0.3 fold-change
same,"F56D6.2 expression, average fold-change",[14]; genotype N2,2.2 fold-change
same,"F56D6.2 expression, average fold-change",[14]; genotype pmk-1(km25),1.0 fold-change
same,"F35E12.5 expression, average fold-change",[15]; genotype N2,10.6 fold-change
same,"F35E12.5 expression, average fold-change",[15]; genotype pmk-1(km25),0.4 fold-change
same,"irg-1 expression, average fold-change",[16]; genotype N2,1.5 fold-change
same,"irg-1 expression, average fold-change",[16]; genotype pmk-1(km25),4.4 fold-change
same,PMK-1 dependence of immune response gene activation,[17],activated at least one immune response gene in the nematode in a manner independent of PMK-1
